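All cell lines were grown in 96-well plates and treated with compound for 48 hours. At the GI50, growth is halved.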 The source made the active and inactive calls. Rule as the data show it: active = GI50 up to about 1.1 µM and inactive = higher.
Columns and labels:
Assay in all cases: growth of human tumour cells (NCI), 48 h
A498 = tested on: A498
ACHN = tested on: ACHN
HCC 2998 = tested on: HCC 2998
HCT-15 = tested on: HCT-15
HOP-92 = tested on: HOP-92
IGROV-1 = tested on: IGROV-1
K562 = tested on: K562
M14 = tested on: M14
Malme-3M = tested on: Malme-3M
RPMI-8226 = tested on: RPMI-8226
RXF 393 = tested on: RXF 393
SF-268 = tested on: SF-268
SF-295 = tested on: SF-295
SK-MEL-28 = tested on: SK-MEL-28
SNB-19 = tested on: SNB-19
SW-620 = tested on: SW-620
UACC-257 = tested on: UACC-257
HCT-116 = tested on: HCT-116
HOP-62 = tested on: HOP-62
NCI-H226 = tested on: NCI-H226

Compound | GI50 (A498) | GI50 (ACHN) | GI50 (HCC 2998) | GI50 (HCT-15) [µM] | GI50 (HOP-92) | GI50 (IGROV-1) | GI50 (K562) | GI50 (M14) | GI50 (Malme-3M) | GI50 (RPMI-8226) | GI50 (RXF 393) | GI50 (SF-268) | GI50 (SF-295) | GI50 (SK-MEL-28) | GI50 (SNB-19) | GI50 (SW-620) | GI50 (UACC-257) | GI50 (HCT-116) | GI50 (HOP-62) | GI50 (NCI-H226)
O=C(O)CNS(=O)(=O)c1ccc(NC(=O)c2ccc(F)cc2)cc1 | > 100 µM (inactive) | > 100 µM (inactive) | > 100 µM (inactive) | > 100 | > 100 µM (inactive) | > 100 µM (inactive) | > 100 µM (inactive) | > 100 µM (inactive) | > 100 µM (inactive) | > 100 µM (inactive) | 83 µM (inactive) | > 100 µM (inactive) | > 100 µM (inactive) | > 100 µM (inactive) | > 100 µM (inactive) | > 100 µM (inactive) | > 100 µM (inactive) |  |  | 
CCCCCCCC(=O)OCC1OC(n2cc(F)c(=O)[nH]c2=O)C(NC(=O)OCc2ccccc2)C(OC(=O)CCCCCCC)C1O (stereo not drawn) | > 100 µM (inactive) | 39.2 µM (inactive) | 35.2 µM (inactive) | 26.5 | 23.2 µM (inactive) | > 100 µM (inactive) | 15.6 µM (inactive) | 25.4 µM (inactive) | 17.9 µM (inactive) | 16.6 µM (inactive) | 20.2 µM (inactive) | 29 µM (inactive) | 57 µM (inactive) | 36.5 µM (inactive) | 0.11 µM (active) | 35 µM (inactive) | 39.7 µM (inactive) | 30.1 µM (inactive) | 71.8 µM (inactive) | 
CN(C)/N=C(/c1nc2ccc(Cl)cc2nc1O)C(O)c1ccc(C(O)/C(=N\N(C)C)c2nc3ccc(Cl)cc3nc2O)cc1 (stereo not drawn) | 61 µM (inactive) | > 100 µM (inactive) | > 100 µM (inactive) |  | 81.7 µM (inactive) | > 100 µM (inactive) | 60.3 µM (inactive) | > 100 µM (inactive) | > 100 µM (inactive) | 14.1 µM (inactive) | > 100 µM (inactive) | > 100 µM (inactive) | > 100 µM (inactive) | > 100 µM (inactive) | > 100 µM (inactive) | > 100 µM (inactive) | > 100 µM (inactive) | > 100 µM (inactive) | 93.1 µM (inactive) | 
CS(=O)(=O)c1n[nH]c2nc(O)nc(O)c12 | > 10 µM (inactive) | > 10 µM (inactive) | > 10 µM (inactive) | > 10 | > 10 µM (inactive) | > 10 µM (inactive) |  | > 10 µM (inactive) | > 10 µM (inactive) |  | > 10 µM (inactive) | > 10 µM (inactive) | > 10 µM (inactive) | > 10 µM (inactive) | > 10 µM (inactive) | > 10 µM (inactive) | > 10 µM (inactive) | > 10 µM (inactive) | > 10 µM (inactive) | > 10 µM (inactive)
CSc1nc2nc(C)c(C)nc2c(=O)[nH]1 | > 100 µM (inactive) | > 100 µM (inactive) | > 100 µM (inactive) | > 100 | > 100 µM (inactive) | > 100 µM (inactive) | > 100 µM (inactive) | > 100 µM (inactive) | > 100 µM (inactive) | > 100 µM (inactive) | > 100 µM (inactive) | > 100 µM (inactive) | > 100 µM (inactive) | > 100 µM (inactive) | > 100 µM (inactive) | > 100 µM (inactive) | > 100 µM (inactive) | > 100 µM (inactive) | > 100 µM (inactive) | 
CCOC(=O)c1csc(NC(=O)CCN2CCCCC2)n1 | > 100 µM (inactive) | > 100 µM (inactive) | > 100 µM (inactive) | > 100 | > 100 µM (inactive) | > 100 µM (inactive) | > 100 µM (inactive) | > 100 µM (inactive) | > 100 µM (inactive) | > 100 µM (inactive) | > 100 µM (inactive) |  | > 100 µM (inactive) | > 100 µM (inactive) | > 100 µM (inactive) | > 100 µM (inactive) | > 100 µM (inactive) |  | > 100 µM (inactive) | 

— ChEMBL document CHEMBL1201862, “PubChem BioAssay data set” (2004)
